The text below walks through data of US12371454B2, “Cyclic peptide compound having Kras inhibitory action” (priority 2019, dated 2025).

Positions of bridges follow the written chain, without caps; N, C: chain ends. Non-standard residues stand in square brackets, D forms with d. Residues, ends and D or L forms follow the SMILES beside them. *: point of attachment. hPhe(3-Cl-4-CF3) = N[C@@H](CCc1ccc(C(F)(F)F)c(Cl)c1)C(=O)O; hPhe(3-F,4-CF3) = N[C@@H](CCc1ccc(C(F)(F)F)c(F)c1)C(=O)O; NMePhe(4-CF3) = CN[C@@H](Cc1ccc(C(F)(F)F)cc1)C(=O)O; NMePhe(4-Me) = CN[C@@H](Cc1ccc(C)cc1)C(=O)O; NMeMet(O2) = CN[C@@H](CCS(C)(=O)=O)C(=O)O; NMePhe(2-Me) = CN[C@@H](Cc1ccccc1C)C(=O)O; NMeAla(cPent) = CN[C@@H](CC1CCCC1)C(=O)O; NMeGly(cBu) = CN[C@H](C(=O)O)C1CCC1; NMeCha = CN[C@@H](CC1CCCCC1)C(=O)O; NMeChg = CN[C@H](C(=O)O)C1CCCCC1; NMeI = CC[C@H](C)[C@H](NC)C(=O)O; NMeT = CN[C@H](C(=O)O)[C@@H](C)O; NMeE = CN[C@@H](CCC(=O)O)C(=O)O; NMeD = CN[C@@H](CC(=O)O)C(=O)O; NMeL = CN[C@@H](CC(C)C)C(=O)O; NMeV = CN[C@H](C(=O)O)C(C)C; d(β3hA) = C[C@@H](N)CC(=O)O; NMeS = CN[C@@H](CO)C(=O)O; Ac6c = NC1(C(=O)O)CCCCC1; Morpholide = C1CN(*)CCO1; NMeA = CN[C@@H](C)C(=O)O; Piperidide = C1CCN(*)CC1; Pyrrolidide = C1CCN(*)C1; Ac5c = NC1(C(=O)O)CCCC1; Aze = O=C(O)[C@@H]1CCN1; Cyclopropyl = C1CC1*; NEtG = CCNCC(=O)O; Sar = CNCC(=O)O

The target in assay [1] is T1, Kras and SOS1 (biotin-tagged human Kras loaded with GDP, His-tagged human SOS1) (Homo sapiens, UniProt P01116, G12D).
T1 construct: made in house; host or cells: E. coli (stated for Kras only)
As to the kind of experiment: Protein-protein interaction inhibition between Kras and SOS1 (KrasGl2D-SOS PPI) using AlphaScreen. The format is binding. The note with it: AlphaScreen; biotin-tagged human Kras loaded with GDP, His-tagged human SOS1; read-out: KRAS G12D-SOS PPI IC50. Put shortly: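 AlphaScreen format: Ni donor beads capture His-SOS1, streptavidin acceptor beads capture biotinylated Kras (E. coli-expressed, GDP-loaded post-purification). Excite 680 nm, read 520-620 nm.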
On the technique in general: Alpha assays give light when donor and acceptor beads are brought close together.

Assay [2] relates to Human pancreatic cancer cell line AsPC-1. As to the kind of experiment: Measurement of AsPC-1 cell growth inhibition (AsPC-1 CGI). The note with it: 96 h. In kind it is cell-based. The gist of the method: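 AsPC-1 cells in 15% FBS RPMI-1640 were exposed to test compound for 96 hours at 37° C, with CellTiter-Glo as endpoint.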

T1 sequence (P01116 1-188 isoform P01116-2 G12D): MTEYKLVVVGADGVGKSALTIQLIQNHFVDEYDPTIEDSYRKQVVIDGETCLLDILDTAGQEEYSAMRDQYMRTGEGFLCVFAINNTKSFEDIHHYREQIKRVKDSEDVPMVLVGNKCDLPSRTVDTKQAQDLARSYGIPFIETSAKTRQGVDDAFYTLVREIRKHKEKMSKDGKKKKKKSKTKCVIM

One may read the IC50 as the point on the concentration scale where inhibition reaches its midpoint. Consider `CC[C@H](C)[C@@H]1NC(=O)[C@H](CC2CCCCC2)N(C)C(=O)C[C@@H](C)NC(=O)[C@H](C(C)C)N(C)C(=O)C2(CCCC2)NC(=O)[C@@H]2CCCN2C(=O)[C@H](CCc2ccc(C(F)(F)F)c(Cl)c2)NC(=O)CN(C)C(=O)[C@H](CC2CCCCC2)N(C)C(=O)CN(C)C(=O)CN(C)C1=O` [Compound 285] (cyclo([Ac5c][NMeV][d(β3hA)][NMeCha]I[Sar][Sar][NMeCha][Sar][hPhe(3-Cl-4-CF3)]P)), for which the 50% inhibitory concentration (IC50) in assay [1] was 52 nM; in assay [2], 100 to 500 nM.
The like results for `CC[C@H](C)[C@@H]1NC(=O)[C@H](CC(C)C)N(C)C(=O)C[C@@H](C(=O)N(C)C)N(C)C(=O)[C@H]([C@@H](C)CC)N(C)C(=O)C2(CCCC2)NC(=O)[C@H](Cc2ccccc2C)N(C)C(=O)[C@H](CCc2ccc(C(F)(F)F)c(Cl)c2)NC(=O)CN(C)C(=O)[C@H](Cc2ccc(C)cc2)N(C)C(=O)[C@@H]2CCN2C(=O)[C@H](C)N(C)C1=O` [Compound 1924] ([NMeL]I[NMeA][Aze][NMePhe(4-Me)][Sar][hPhe(3-Cl-4-CF3)][NMePhe(2-Me)][Ac5c][NMeI][NMeD]-NMe2; lactam N-11) were, in that order, 5.1 nM and 100 to 500 nM.
On the same counts, the results for `CC[C@H](C)[C@@H]1NC(=O)[C@H](CC(C)C)N(C)C(=O)C[C@@H](C(=O)N2CCCCC2)N(C)C(=O)[C@H](C2CCCCC2)N(C)C(=O)C2(CCCC2)NC(=O)[C@@H]2CCCN2C(=O)[C@H](CCc2ccc(C(F)(F)F)c(Cl)c2)NC(=O)CN(C)C(=O)[C@H](Cc2ccc(C)cc2)N(C)C(=O)CN(C)C(=O)CN(C)C1=O` [Compound 1804] ([NMeL]I[Sar][Sar][NMePhe(4-Me)][Sar][hPhe(3-Cl-4-CF3)]P[Ac5c][NMeChg][NMeD]-Piperidide; lactam N-11) are 0.51 nM and 50 to 100 nM.
`CC[C@H](C)[C@@H]1NC(=O)[C@H](CC(C)C)N(C)C(=O)C[C@@H](C(=O)N(C)C)N(C)C(=O)[C@H]([C@@H](C)CC)N(C)C(=O)C2(CCCC2)NC(=O)[C@H](CCC(=O)NC)N(C)C(=O)[C@H](CCc2ccc(C(F)(F)F)c(Cl)c2)NC(=O)CN(C)C(=O)[C@H](Cc2ccc(C)cc2)N(C)C(=O)[C@@H]2CCN2C(=O)[C@H](C)N(C)C1=O` [Compound 1911] ([NMeL]I[NMeA][Aze][NMePhe(4-Me)][Sar][hPhe(3-Cl-4-CF3)][NMeE](NHMe)[Ac5c][NMeI][NMeD]-NMe2; lactam N-11): the 50% inhibitory concentration (IC50) was 0.67 nM in assay [1] and 50 to 100 nM in assay [2].
As for `CC[C@H](C)[C@@H]1NC(=O)[C@H](CC(C)C)N(C)C(=O)C[C@@H](C(=O)N2CCCCC2)N(C)C(=O)[C@H](C2CCCCC2)N(C)C(=O)C2(CCCC2)NC(=O)[C@@H]2CCCN2C(=O)[C@H](CCc2ccc(C(F)(F)F)c(Cl)c2)NC(=O)CN(C)C(=O)[C@H]([C@@H](C)OC)N(C)C(=O)CN(C)C(=O)CN(C)C1=O` [Compound 1072] ([NMeL]I[Sar][Sar][NMeT](Me)[Sar][hPhe(3-Cl-4-CF3)]P[Ac5c][NMeChg][NMeD]-Piperidide; lactam N-11), the IC50 was 1.2 nM in assay [1] and 100 to 500 nM in assay [2].
On the same counts, the results for `CC[C@H](C)[C@@H]1NC(=O)[C@H](C)N(C)C(=O)C[C@@H](C(=O)N2CCCCC2)N(C)C(=O)[C@H](C2CCCCC2)N(C)C(=O)C2(CCCC2)NC(=O)[C@@H]2CCCN2C(=O)[C@H](CCc2ccc(C(F)(F)F)c(F)c2)NC(=O)CN(C)C(=O)[C@H](CC2CCCCC2)N(C)C(=O)CN(C)C(=O)CN(C)C1=O` [Compound 491] ([NMeA]I[Sar][Sar][NMeCha][Sar][hPhe(3-F,4-CF3)]P[Ac5c][NMeChg][NMeD]-Piperidide; lactam N-11) are 0.35 nM and 100 to 500 nM.
The like results for `CC[C@H](C)[C@@H]1NC(=O)[C@H](CC(C)C)N(C)C(=O)C[C@@H](C)NC(=O)[C@H](C(C)C)N(C)C(=O)C2(CCCC2)NC(=O)[C@@H]2CCCN2C(=O)[C@H](CCc2ccc(C(F)(F)F)c(Cl)c2)NC(=O)CN(CC)C(=O)[C@H](CC2CCCCC2)N(C)C(=O)CN(C)C(=O)CN(C)C1=O` [Compound 395] (cyclo([Ac5c][NMeV][d(β3hA)][NMeL]I[Sar][Sar][NMeCha][NEtG][hPhe(3-Cl-4-CF3)]P)) were, in that order, 47 nM and 100 to 500 nM.
For `CC[C@H](C)[C@@H]1NC(=O)[C@H](CCS(C)(=O)=O)N(C)C(=O)C[C@@H](C(=O)N2CCCCC2)N(C)C(=O)[C@H](C2CCCCC2)N(C)C(=O)C2(CCCC2)NC(=O)[C@@H]2CCCN2C(=O)[C@H](CCc2ccc(C(F)(F)F)c(Cl)c2)NC(=O)CN(C)C(=O)[C@H](CC2CCCCC2)N(C)C(=O)CN(C)C(=O)CN(C)C1=O` [Compound 52] ([NMeMet(O2)]I[Sar][Sar][NMeCha][Sar][hPhe(3-Cl-4-CF3)]P[Ac5c][NMeChg][NMeD]-Piperidide; lactam N-11), the results for the IC50 in assay [1] and in assay [2] were 0.66 nM and 100 to 500 nM, respectively.
The like results for `CC[C@H](C)[C@@H]1NC(=O)[C@H](CC(C)C)N(C)C(=O)C[C@@H](C(=O)N2CCCCC2)N(C)C(=O)[C@H](C(C)C)N(C)C(=O)C2(CCCC2)NC(=O)[C@@H]2CCCN2C(=O)[C@H](CCc2ccc(C(F)(F)F)c(Cl)c2)NC(=O)CN(C)C(=O)[C@H](COC2CC2)N(C)C(=O)[C@@H]2CCN2C(=O)[C@H](C)N(C)C1=O` [Compound 1738] ([NMeL]I[NMeA][Aze][NMeS](Cyclopropyl)[Sar][hPhe(3-Cl-4-CF3)]P[Ac5c][NMeV][NMeD]-Piperidide; lactam N-11) were, in that order, 11 nM and 100 to 500 nM.
On the same counts, the results for `CC[C@H](C)[C@@H]1NC(=O)[C@H](C2CCC2)N(C)C(=O)C[C@@H](C(=O)N2CCCC2)N(C)C(=O)[C@H](C2CCCCC2)N(C)C(=O)C2(CCCC2)NC(=O)[C@@H]2CCCN2C(=O)[C@H](CCc2ccc(C(F)(F)F)c(Cl)c2)NC(=O)CN(C)C(=O)[C@H](Cc2ccc(C(F)(F)F)cc2)N(C)C(=O)CN(C)C(=O)CN(C)C1=O` [Compound 73] ([NMeGly(cBu)]I[Sar][Sar][NMePhe(4-CF3)][Sar][hPhe(3-Cl-4-CF3)]P[Ac5c][NMeChg][NMeD]-Pyrrolidide; lactam N-11) are 0.33 nM and 20 to 50 nM.
The like results for `CC[C@H](C)[C@@H]1NC(=O)[C@H](CC(C)C)N(C)C(=O)C[C@@H](C)NC(=O)[C@H](C(C)C)N(C)C(=O)C2(CCCCC2)NC(=O)[C@@H]2CCCN2C(=O)[C@H](CCc2ccc(C(F)(F)F)c(Cl)c2)NC(=O)CN(C)C(=O)[C@H](CC2CCCCC2)N(C)C(=O)CN(C)C(=O)CN(C)C1=O` [Compound 439] (cyclo([Ac6c][NMeV][d(β3hA)][NMeL]I[Sar][Sar][NMeCha][Sar][hPhe(3-Cl-4-CF3)]P)) were, in that order, 52 nM and 100 to 500 nM.
As to `CC[C@H](C)[C@@H]1NC(=O)[C@H](CC(C)C)N(C)C(=O)C[C@@H](C(=O)N2CCOCC2)N(C)C(=O)[C@H](C2CCCCC2)N(C)C(=O)C2(CCCC2)NC(=O)[C@@H]2CCCN2C(=O)[C@H](CCc2ccc(C(F)(F)F)c(Cl)c2)NC(=O)CN(C)C(=O)[C@H](CC2CCCC2)N(C)C(=O)CN(C)C(=O)CN(C)C1=O` [Compound 1923] ([NMeL]I[Sar][Sar][NMeAla(cPent)][Sar][hPhe(3-Cl-4-CF3)]P[Ac5c][NMeChg][NMeD]-Morpholide; lactam N-11), the concentration for half-maximal inhibition (IC50) was 0.89 nM in assay [1] and 50 to 100 nM in assay [2].
